In patent US7396830B2, “Piperazine amidines as antiviral agents” (priority 2005, dated 2008):
pEC50: −log10 of the molar value.

These compounds were tested on HIV-1 (assay: Single-round infectious HIV-1 luciferase reporter virus infection of HeLa CD4 cells). Settings: Human immunodeficiency virus 1, HeLa, 72 h, read-out: EC50 Group from Table 1.
Assay type: cell-based
Description: • Virus production—Human embryonic Kidney cell line, 293T, was propagated in Dulbecco's Modified Eagle Medium (Invitrogen, Carlsbad, Calif.) containing 10% fetal Bovine serum (FBS, Sigma, St. Louis, Mo.). • Virus infection—Human epithelial cell line, HeLa, expressing the HIV-1 receptor CD4 was propagated in Dulbecco's Modified Eagle Medium (Invitrogen, Carlsbad, Calif.) containing 10% fetal Bovine serum (FBS, Sigma, St. Louis , Mo.) and supplemented with 0.2 mg/mL Geneticin (Invitrogen, Carlsbad, Calif.). Virus-Single-round infectious reporter virus was produced by co-transfecting human embryonic Kidney 293 cells with an HIV-1 envelope DNA expression vector and a proviral cDNA containing an envelope deletion mutation and the luciferase reporter gene inserted in place of HIV-1 nef sequences (Chen et al, Ref. 41). Transfections were performed using lipofectAMINE PLUS reagent as described by the manufacturer (Invitrogen, Carlsbad, Calif.). Experiment • 1. HeLa CD4 cells were plated in 96 well plates at a cell density of 1×10^4 cells per well in 100 μl Dulbecco's Modified Eagle Medium containing 10% fetal Bovine serum and incubated overnight. • 2. Compound was added in a 2 μl dimethylsulfoxide solution, so that the final assay concentration would be ≦10 μM. • 3. 100 μl of single-round infectious reporter virus in Dulbecco's Modified Eagle Medium was then added to the plated cells and compound at an approximate multiplicity of infection (MOI) of 0.01, resulting in a final volume of 200 μl per well. • 4. Virally-infected cells were incubated at 37 degrees Celsius, in a CO2 incubator, and harvested 72 h after infection. • 5. Viral infection was monitored by measuring luciferase expression from viral DNA in the infected cells using a luciferase reporter gene assay kit, as described by the manufacturer (Roche Molecular Biochemicals, Indianapolis, Ind.). Infected cell supernatants were removed and 50 μl of lysis buffer was added per well. After 15 minutes, 50 μl of freshly-reconstituted luciferase assay reagent was added per well. Luciferase activity was then quantified by measuring luminescence using a Wallac microbeta scintillation counter. • 6. The percent inhibition for each compound was calculated by quantifying the level of luciferase expression in cells infected in the presence of each compound as a percentage of that observed for cells infected in the absence of compound and subtracting such a determined value from 100. • 7. An EC50 provides a method for comparing the antiviral potency of the compounds of this disclosure. The effective concentration for fifty percent inhibition (EC50) was calculated with the Microsoft Excel Xlfit curve fitting software. For each compound, curves were generated from percent inhibition calculated at 10 different concentrations by using a four paramenter logistic model (model 205). Table 1 is the key for the data in Table 2. Results

`O=C(C(=O)N1CCN(/C(=N/CCOCCO)c2ccccc2)CC1)c1c[nH]c2c(-n3ccnn3)ncc(F)c12` [AM-60] and `CCCC/N=C(\c1ccccc1)N1CCN(C(=O)C(=O)c2c[nH]c3c(-n4ccnn4)ncc(F)c23)CC1` [AM-62] cannot be ordered by pEC50: > 6.30 for the first, > 6.30 for the second.

`O=C(C(=O)N1CCN(/C(=N/CCOCCO)c2ccccc2)CC1)c1c[nH]c2cccc(F)c12` [AM-19] and `CN(C)CCC/N=C(\c1ccccc1)N1CCN(C(=O)C(=O)c2c[nH]c3cccc(F)c23)CC1` [AM-20] cannot be ordered by pEC50: < 6.30 for the first, < 6.30 for the second.

`O=C(C(=O)N1CCN(/C(=N/C2CCCC2)c2ccccc2)CC1)c1c[nH]c2c(-n3ccnn3)ncc(F)c12` [AM-61] and `O=C(C(=O)N1CCN(/C(=N/C2CCCCC2)c2ccccc2)CC1)c1c[nH]c2c(-n3ccnn3)ncc(F)c12` [AM-63] cannot be ordered by pEC50: > 6.30 for the first, > 6.30 for the second.

`C/N=C(\c1ccccc1)N1CCN(C(=O)C(=O)c2c[nH]c3c(-n4ccnn4)ncc(F)c23)CC1` [AM-69] and `CC/N=C(\c1ccccc1)N1CCN(C(=O)C(=O)c2c[nH]c3c(-n4ccnn4)ncc(F)c23)CC1` [AM-59] cannot be ordered by pEC50: > 6.30 for the first, > 6.30 for the second.

`O=C(C(=O)N1CCN(/C(=N/C2CCC2)c2ccccc2)CC1)c1c[nH]c2c(-n3ccnn3)ncc(F)c12` [AM-56] and `N#C/N=C(\c1ccccc1)N1CCN(C(=O)C(=O)c2c[nH]c3c(-n4ccnn4)ncc(F)c23)CC1` [AM-10, ((4-(2-(4-fluoro-7-(1H-1,2,3-triazol-1-yl)-1H-pyrrolo[2,3-c]pyridin-3-yl)-2-oxoacetyl)piperazin-1-yl)(phenyl)methylene)cyanamide] cannot be ordered by pEC50: > 6.30 for the first, > 6.30 for the second.

`N#C/N=C(\c1ccccc1)N1CCN(C(=O)C(=O)c2c[nH]c3cc(F)cc(F)c23)CC1` [AM-28] and `N#C/N=C(\c1ccccc1)N1CCN(C(=O)C(=O)c2c[nH]c3cccc(F)c23)CC1` [AM-02] cannot be ordered by pEC50: > 6.30 for the first, > 6.30 for the second.

`CCC/N=C(\c1ccccc1)N1CCN(C(=O)C(=O)c2c[nH]c3ccccc23)CC1` [AM-13] and `C/N=C(\c1ccccc1)N1CCN(C(=O)C(=O)c2c[nH]c3ccccc23)CC1` [AM-12] cannot be ordered by pEC50: < 6.30 for the first, < 6.30 for the second.

`C[C@@H]1CN(C(=N)c2ccccc2)CCN1C(=O)C(=O)c1c[nH]c2c(-n3ccnn3)ncc(F)c12` [AM-33] and `C[C@@H]1CN(/C(=N/C#N)c2ccccc2)CCN1C(=O)C(=O)c1c[nH]c2c(-n3ccnn3)ncc(F)c12` [AM-25, (((R)-4-(2-(4-fluoro-7-(1H-1,2,3-triazol-1-yl)-1H-pyrrolo[2,3-c]pyridin-3-yl)-2-oxoacetyl)-3-methylpiperazin-1-yl)(phenyl)methylene)cyanamide] cannot be ordered by pEC50: > 6.30 for the first, > 6.30 for the second.

`CS(=O)(=O)/N=C(\c1ccccc1)N1CCN(C(=O)C(=O)c2c[nH]c3c(-n4ccnn4)ncc(F)c23)CC1` [AM-68] and `CN(C)S(=O)(=O)/N=C(\c1ccccc1)N1CCN(C(=O)C(=O)c2c[nH]c3c(-n4ccnn4)ncc(F)c23)CC1` [AM-67] cannot be ordered by pEC50: > 6.30 for the first, > 6.30 for the second.

`COc1ccc(Br)c2[nH]cc(C(=O)C(=O)N3CCN(/C(=N/S(C)(=O)=O)c4ccccc4)CC3)c12` [AM-07] and `CS(=O)(=O)/N=C(\c1ccccc1)N1CCN(C(=O)C(=O)c2c[nH]c3cccc(F)c23)CC1` [AM-09] cannot be ordered by pEC50: > 6.30 for the first, > 6.30 for the second.

Going from `C/N=C(\c1ccccc1)N1CCN(C(=O)C(=O)c2c[nH]c3cccc(F)c23)CC1` [AM-18] to `N=C(c1ccccc1)N1CCN(C(=O)C(=O)c2c[nH]c3cccc(F)c23)CC1` [AM-01, 1-(4-fluoro-1H-indol-3-yl)-2-(4-(imino(phenyl)methyl)piperazin-1-yl)ethane-1,2-dione], the pEC50 rises from < 6.30 to > 6.30. The second is the more potent here.

`COc1cnc(-n2ccnn2)c2[nH]cc(C(=O)C(=O)N3CCN(/C(=N/C#N)c4ccccc4)CC3)c12` [AM-24] and `COc1cnc(-n2ccnn2)c2[nH]cc(C(=O)C(=O)N3CCN(C(=N)c4ccccc4)CC3)c12` [AM-34] cannot be ordered by pEC50: > 6.30 for the first, > 6.30 for the second.

`N#C/N=C(\c1ccccn1)N1CCN(C(=O)C(=O)c2c[nH]c3c(-n4ccnn4)ncc(F)c23)CC1` [AM-81] and `N=C(c1ccccn1)N1CCN(C(=O)C(=O)c2c[nH]c3c(-n4ccnn4)ncc(F)c23)CC1` [AM-54] cannot be ordered by pEC50: > 6.30 for the first, > 6.30 for the second.

Compared with `O=C(C(=O)N1CCN(/C(=N/CCN2CCOCC2)c2ccccc2)CC1)c1c[nH]c2cccc(F)c12` [AM-23], `O=C(C(=O)N1CCN(/C(=N/CCN2CCOCC2)c2ccccc2)CC1)c1c[nH]c2c(Br)ccc(F)c12` [AM-06] is higher in pEC50: < 6.30 for the first, > 6.30 for the second.

Compared with `O=C(C(=O)N1CCN(/C(=N/c2cccnc2)c2ccccc2)CC1)c1c[nH]c2cccc(F)c12` [AM-22], `O=C(C(=O)N1CCN(/C(=N/c2ccccc2)c2ccccc2)CC1)c1c[nH]c2cccc(F)c12` [AM-08, 1-(4-fluoro-1H-indol-3-yl)-2-(4-(phenyl(phenylimino)methyl)piperazin-1-yl)ethane-1,2-dione] is higher in pEC50: < 6.30 for the first, > 6.30 for the second. The second is the more potent here.

`N#C/N=C(\c1ccccc1)N1CCN(C(=O)C(=O)c2c[nH]c3c(Br)ccc(F)c23)CC1` [AM-17] and `N#C/N=C(\c1ccccc1)N1CCN(C(=O)C(=O)c2c[nH]c3c(F)ccc(F)c23)CC1` [AM-30] cannot be ordered by pEC50: > 6.30 for the first, > 6.30 for the second.

`COc1cnc(-n2cnc(C)n2)c2[nH]cc(C(=O)C(=O)N3CCN(/C(=N/C#N)c4ccccn4)CC3)c12` [AM-82] and `COc1cnc(-n2cnc(C)n2)c2[nH]cc(C(=O)C(=O)N3CCN(C(=N)c4ccccn4)CC3)c12` [AM-55] cannot be ordered by pEC50: > 6.30 for the first, > 6.30 for the second.

`CC[C@@H]1CN(/C(=N/C#N)c2ccccc2)CCN1C(=O)C(=O)c1c[nH]c2c(-n3ccnn3)ncc(F)c12` [AM-66] and `C[C@H]1CN(/C(=N/C#N)c2ccccc2)CCN1C(=O)C(=O)c1c[nH]c2c(-n3ccnn3)ncc(F)c12` [AM-65] cannot be ordered by pEC50: > 6.30 for the first, > 6.30 for the second.

`C[C@H]1CN(/C(=N/C#N)c2ccccc2)CCN1C(=O)C(=O)c1c[nH]c2c(-c3nccs3)ccc(F)c12` [AM-78] and `C[C@H]1CN(/C(=N/C#N)c2ccccc2)CCN1C(=O)C(=O)c1c[nH]c2c(-c3ccccn3)ccc(F)c12` [AM-79] cannot be ordered by pEC50: > 6.30 for the first, > 6.30 for the second.

`C[C@H]1CN(/C(=N/C#N)c2ccccc2)CCN1C(=O)C(=O)c1c[nH]c2c(Br)ccc(F)c12` [AM-76] and `C[C@H]1CN(/C(=N/C#N)c2ccccc2)CCN1C(=O)C(=O)c1c[nH]c2c(-c3cc4ccccc4s3)ccc(F)c12` [AM-80] cannot be ordered by pEC50: > 6.30 for the first, > 6.30 for the second.

`COc1cnc(-n2ccc(-c3ccc(C#N)cc3)n2)c2[nH]cc(C(=O)C(=O)N3CCN(/C(=N/C#N)c4ccccc4)CC3)c12` [AM-11] and `COc1cnc(-n2cnc(C)n2)c2[nH]cc(C(=O)C(=O)N3CCN(/C(=N/C#N)c4ccccc4)CC3)c12` [AM-16] cannot be ordered by pEC50: > 6.30 for the first, > 6.30 for the second.

`COc1ncc(OC)c2c(C(=O)C(=O)N3CCN(/C(=N/C#N)c4ccccc4)CC3)c[nH]c12` [AM-03] and `CCc1ncn(-c2ncc(OC)c3c(C(=O)C(=O)N4CCN(/C(=N/C#N)c5ccccc5)CC4)c[nH]c23)n1` [AM-53] cannot be ordered by pEC50: > 6.30 for the first, > 6.30 for the second.

`CC(C)/N=C(\c1ccccc1)N1CCN(C(=O)C(=O)c2c[nH]c3c(-n4ccnn4)ncc(F)c23)CC1` [AM-64] and `CN(C)CCC/N=C(\c1ccccc1)N1CCN(C(=O)C(=O)c2c[nH]c3c(-n4ccnn4)ncc(F)c23)CC1` [AM-58] cannot be ordered by pEC50: > 6.30 for the first, > 6.30 for the second.

`COc1cnc(-c2cnccn2)c2[nH]cc(C(=O)C(=O)N3CCN(C(=N)c4ccccc4)C[C@H]3C)c12` [AM-71] and `C/N=C(\c1ccccc1)N1CCN(C(=O)C(=O)c2c[nH]c3c(-n4cnc(C)n4)ncc(OC)c23)CC1` [AM-70] cannot be ordered by pEC50: > 6.30 for the first, > 6.30 for the second.

`N=C(c1ccccc1)N1CCN(C(=O)C(=O)c2c[nH]c3c(Br)ccc(F)c23)CC1` [AM-73] and `N=C(c1ccccc1)N1CCN(C(=O)C(=O)c2c[nH]c3c(-c4nccs4)ccc(F)c23)CC1` [AM-77] cannot be ordered by pEC50: > 6.30 for the first, > 6.30 for the second.

First: CN(C)S(=O)(=O)/N=C(\c1ccccc1)N1CCN(C(=O)C(=O)c2c[nH]c3ccccc23)CC1 [AM-04]
Second: CN(C)S(=O)(=O)/N=C(\c1ccccc1)N1CCN(C(=O)C(=O)c2c[nH]c3cccc(F)c23)CC1 [AM-26]
The pEC50 of the first is higher: > 6.30 for the first, < 6.30 for the second. The first is the more potent here.

`CC1(C)OB(c2ccc(NC(=O)/N=C(\c3ccccc3)N3CCN(C(=O)C(=O)c4c[nH]c5cccc(F)c45)CC3)cc2)OC1(C)C` [AM-50] and `CC(C)NC(=O)/N=C(\c1ccccc1)N1CCN(C(=O)C(=O)c2c[nH]c3cccc(F)c23)CC1` [AM-36] cannot be ordered by pEC50: < 6.30 for the first, < 6.30 for the second.

`CC(C)(C)/N=C(\c1ccccc1)N1CCN(C(=O)C(=O)c2c[nH]c3ccccc23)CC1` [AM-14] and `O=C(C(=O)N1CCN(/C(=N/C2CC2)c2ccccc2)CC1)c1c[nH]c2cccc(F)c12` [AM-21] cannot be ordered by pEC50: < 6.30 for the first, < 6.30 for the second.

For `CCN(CC)CC/N=C(\c1ccccc1)N1CCN(C(=O)C(=O)c2c[nH]c3c(Br)ccc(F)c23)CC1` [AM-05], the pEC50 was > 6.30.
